In patent publication US20160256535A1, “HEXAPEPTIDE AND USES THEREOF” (priority 2013, published 2016):
Primed or numbered codes have the meaning given here. No end group written: not given here. FITC′ = not defined here

Tests used:
MCF-7 cells = assay: Internalization of fluoresceinated hexapeptide by confocal and fluorescence microscopy; assay type: cell-based, human; settings: for internalization by confocal microscopy: 0.125 μM, 3 hr
Experimental: The confocal analysis was performed by placing the cells of human breast cancer (MCF-7, ATCC HTB-22) on suitable slides (MatTek, Ashland Corporation MA, U.S.). The hexapaptide to the concentration of 0.125 μM was then added to the cells.
The protocol used for the internalization of the PEP-6 FAM includes two separate experiments. A first experiment was done using PEP 6-FAM to 92 μM for 3 hr and the internalization was assessed. To these cells, already treated with PEP6-FAM, primary Ab anti-PEP 24 1:20 overnight at 4° C. was added and, as secondary antibody goat anti rabbit fluorescent CF 488A; and to 1 plate, already treated with PEP6 FAM, it was added the primary antibody anti rMnSOD 1:20 overnight and the secondary CF555 rodamynated donkey anti sheep. For 45 min-1 hr.
In the second experiment, the PEP 6-FAM was used at 92 μM to 1 hr and 3 hr with fixation in ethanol and paraformaldehyde, and for both times it was assessed the penetration alone, without the addition of the antibody and with the addition of primary antibody anti rMnSOD with three different dilutions (1500-1:1000-1:2000) in 5% NGS (Normal Goat Serum) in PBS +0.1% Triton overnight at 4° C. and, the secondary antibody anti rhodium CF 555 sheep 1:400 for 45′-1 hr. The nuclei were subsequently stained with 10 μg for ml^−1 DAPI (4′,6-diamidin-2-phenylindole, LIFE™ Thencologies).

cells = assay: Ability of hexapeptide conjugated to fluorescein to enter cells (immunocytochemistry); assay type: cell-based; settings: immunocytochemistry examination
Text: The test results are positive and confirms the previous data.

Human Normal Lymphocytes = assay: Lymphocyte penetration, immunocytochemistry / immunofluorescence; assay type: cell-based
Experimental: Human Normal Lymphocytes cells were collected from healthy donors and purified using Ficoll Hystopaque density gradient centrifugation. The cells were cultured at a density of 1×10^6 cells/mL in RPMI media supplemented with 1% Penstrep and 10% FBS in a humidified atmosphere containing 5% CO2 at 37° C.
(§1) A cytospin was used to smear cells onto slides. The smears were fixed in Zamboni solution (4% paraformaldehyde, 15% picric acid) for 60 minutes and then washed with 1×PBS and incubated for five minutes with 3% hydrogen peroxide to quench endogenous peroxidase activity. Immunostaining was performed using the DAKO LSA+System HRP kit. Rabbit anti-rMnSOD-Lp (1:200), was incubated on slides for 30 minutes, followed by incubation with the biotinylated secondary antibody for 30 minutes and peroxidase-labeled streptavidin for 30 minutes. To complete the reaction, a substrate-chromogen solution was used. The smears were counterstained with hematoxylin.

white blood cells = assay: White blood cell penetration, immunocytochemistry at light microscopy; assay type: cell-based, human; settings: healthy subject
Experimental: as §1, with “Lymphocytes were incubated for five hours in the presence of fluorescinated Hexapeptide 92 μM. A cytospin” for “A cytospin”

Jurkat cells = assay: Jurkat cell penetration, immunofluorescence; assay type: cell-based, human; settings: 92 μM, 3 h
Experimental: Jurkat cells (ATTC, UK) were seeded at density of 150000 cells/well in RPMI media supplemented with 1% Penstrep and 10% FBS in a humidified atmosphere containing 5% CO2 at 37°. The next day, the cells were incubated with 92 μM AVCGTG (SEQ ID NO. 1)-FITC for 3 h in multiwell 24. Subsequently, a cytospin was used to smear cells onto slides. The smears were fixed with 4% paraformaldehyde/PBS for 10 min and rinsed twice with 1×PBS containing 0.1% Triton to remove traces of fixative. Cell samples without AVCGTG (SEQ ID NO. 1)-FITC were used for the background control. After blocking solution with 5% NGS (Normal Goat Serum, VECTOR) 1×PBS+0,1% Triton X-100, was added for 30 minutes. After removing the blocking solution, cells were incubated with primary antibody hexapeptide, diluted 1:200 in blocking solution, overnight at 4° C. The following day, after washing with lx PBS and 0.1% Triton X-100 for 10 minutes, secondary antibody (ALEXA FLUO 488A, SANTACRUZ) diluted 1:400 with 1×PBS and 0.1% Triton X-100 for 2 h was added. The excess of antibody was removed with 3 washes with 1×PBS.
Nuclei were stained with DAPI (1 μg/mL). The slides were mounted and stored in the dark at 4° C. and then observed by fluorescence microscope ZEISS HB050 by using the software Axion Vision Re1.4.8.

sperm = assay: Sperm fluorescence microscopy with propidium iodide; assay type: cell-based, bovine; settings: 1 mg/ml, 37° C., 1 hour; sperm without red (propidium iodide) fluorescence
Experimental: Three fresh ejaculate from bovine, obtained from two different bulls, were mixed and diluted in Tris solution with a concentration of 100×10^6 sperm/ml, incubated at 37° C. for 1 hour in the presence of 1 mg/ml of FITC-rMnSOD-LP (hexapeptide) and 1 mg/ml of propidium iodide.
The peptide also enters in the sperm with a non-intact membrane. These sperm must not to be taken into consideration in the penetration study because if the membrane is broken, its permeability is not selective. The hexapeptide enters even in the dead, but for normal diffusion, not for selective activity of intact membranes.

AVCGTG (SEQ ID NO. 1)-FITC (AVCGTG-{FITC′})
penetration by fluorescence optical microscopy (MCF-7 cells): penetrates into the MCF-7 breast cancer cells | internalization by confocal microscopy (MCF-7 cells; listed as FITC-PEP): internalized into the cytoplasm | internalization by confocal microscopy (MCF-7 cells; listed as FTC-peptide): internalized in the cytoplasm | penetration into the cells (cells): penetrates into the cells | internalization in lymphocytes (Human Normal Lymphocytes; 3 hour incubation): most cells internalized | percentage of labeled cells (Human Normal Lymphocytes; lymphocytes, 92 μM, 3 hours): 95% | penetration into white blood cells (white blood cells): penetrates in white blood cells | penetration into Jurkat cells (Jurkat cells): penetrates in Jurkat cells | viable sperm showing green fluorescence in the mid piece of the tail (sperm): 100%
